{"source": "patent US9962326B2", "about": "“Compositions comprising paulownia tomentosa wood extracts and uses thereof” (JOHNSON & JOHNSON CONSUMER INC., priority 2010, dated 2018)", "tested_on": "UV-induced ROS, primary human keratinocytes", "test": "Inhibition of Reactive Oxygen Species Formation in primary human keratinocytes", "assay_type": "cell-based", "details": "for Reactive Oxygen Species Produced (MFU): 60 minutes post UV", "description": "The anti-oxidant activity of Paulownin was established via the Inhibition of Reactive Oxygen Species Formation assay described above. In this study primary human keratinocytes were substituted for human epithelial (KB) cells. The keratinocytes were plated in 96-well tissue culture treated plates at a density of 5000 cells/well in Dulbecco's modified Eagle's medium (DMEM) supplemented with 10% fetal bovine serum (Invitrogen Corp., San Diego, Calif.). After 48 hours, cells were incubated for 30 minutes with 5 μM of the hydrogen peroxide-sensitive fluorescent probe 5-(and-6)-chloromethyl-2′,7′-dichlorodihydro-fluorescein diacetate, acetyl ester (CM-H2DCFDA) (Invitrogen Corp., Carlsbad, Calif.). After incubation, the plate was rinsed to remove excess probe and Paulownin was added at the indicated concentrations. The plate was immediately read on a fluorescent plate reader set at wavelengths 485 nm excitation/530 nm emission to detect basal peroxide formation. The plate was then exposed to UV (1000W-Oriel solar simulator equipped with a 1 mm Schott WG 320 filter; UV dose applied 4.2 kJ/m^2 as measured at 360 nm). The plate was read 60 minutes post UV exposure and the data reported as mean fluorescent units (MFU).", "data": [{"compound": "OC12COC(c3ccc4c(c3)OCO4)C1COC2c1ccc2c(c1)OCO2", "note": "(stereo not shown) [Paulownin]", "values": [{"measurement": "UV-induced production of ROS (in words)", "result": "significantly reduce"}, {"measurement": "Percent Inhibition of UV Induced ROS Formation", "setting": "UV + 50 ug/ml", "result": 65.3, "unit": "%"}, {"measurement": "Reactive Oxygen Species Produced (MFU)", "setting": "UV + 50 ug/ml", "result": "46.3 ± 6.9", "unit": "MFU"}, {"measurement": "Percent Inhibition of UV Induced ROS Formation", "setting": "UV + 100 ug/ml", "result": 69.5, "unit": "%"}, {"measurement": "Reactive Oxygen Species Produced (MFU)", "setting": "UV + 100 ug/ml", "result": "40.5 ± 6.1", "unit": "MFU"}, {"measurement": "Percent Inhibition of UV Induced ROS Formation", "setting": "UV + 200 ug/ml", "result": 72.1, "unit": "%"}, {"measurement": "Reactive Oxygen Species Produced (MFU)", "setting": "UV + 200 ug/ml", "result": "37.2 ± 3.4", "unit": "MFU"}]}]}
